Assay results as given in PubChem BioAssay AID328 (DTP/NCI, 2004).
Several values for one entry are separate records, joined by “and”; a condition that tells them apart may be missing. Equal entries are not always repeated. Toxic doses and inconclusive results are not listed.

Tested on: BDF1 mice, P388 leukemia ip, median survival T/C
Assay: NCI In Vivo Anticancer Drug Screen. Data for tumor model P388 Leukemia (intraperitoneal) in B6D2F1 (BDF1) mice
Conditions: endpoint: median survival time, higher = longer survival
Method in brief: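 Read-out is survival of treated animals expressed relative to the vehicle group, as a T/C ratio.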

[1] = dose: 100.0 mg/kg/injection, schedule: Q04DX003 (ip), vehicle: Klucel (hydroxypropylcellulose) (HPC)
[2] = dose: 200.0 mg/kg/injection, schedule: Q04DX003 (ip), vehicle: Klucel (hydroxypropylcellulose) (HPC)
[3] = dose: 400.0 mg/kg/injection, schedule: Q04DX003 (ip), vehicle: Klucel (hydroxypropylcellulose) (HPC)
[4] = dose: 50.0 mg/kg/injection, schedule: Q01DX009 (ip), vehicle: Klucel (hydroxypropylcellulose) (HPC)
[5] = dose: 100.0 mg/kg/injection, schedule: Q01DX009 (ip), vehicle: Klucel (hydroxypropylcellulose) (HPC)
[6] = dose: 200.0 mg/kg/injection, schedule: Q01DX009 (ip), vehicle: Klucel (hydroxypropylcellulose) (HPC)
[7] = dose: 100.0 mg/kg/injection, schedule: Q04DX002 (ip), vehicle: saline with Tween-80

`CC[CH2][Pb]([CH2]CC)([CH2]CC)[N]1C(=O)c2ccccc2C1=O` was tested, and the T/C (dose: 3.12 mg/kg/injection, schedule: Q01DX009 (ip), vehicle: Klucel (hydroxypropylcellulose) (HPC)) was 108 % of control and 123 % of control, the T/C (dose: 6.25 mg/kg/injection, schedule: Q01DX009 (ip), vehicle: Klucel (hydroxypropylcellulose) (HPC)) was 110 % of control and 123 % of control and the T/C (dose: 12.5 mg/kg/injection, schedule: Q01DX009 (ip), vehicle: Klucel (hydroxypropylcellulose) (HPC)) was 123 % of control.

For `CC(C)(C)OC(=O)NNC(c1ccccc1)c1ccccc1`, the T/C (dose: 50.0 mg/kg/injection, schedule: Q01DX001 (ip), vehicle: Klucel (hydroxypropylcellulose) (HPC)) was 91 % of control, the T/C (dose: 50.0 mg/kg/injection, schedule: Q01DX009 (ip), vehicle: other) was 105 % of control and the T/C (dose: 100.0 mg/kg/injection, schedule: Q01DX001 (ip), vehicle: Klucel (hydroxypropylcellulose) (HPC)) was 91 % of control. For the same compound, the T/C (dose: 100.0 mg/kg/injection, schedule: Q01DX009 (ip), vehicle: other) was 110 % of control, the T/C [1] was 105 % of control and the T/C (dose: 200.0 mg/kg/injection, schedule: Q01DX001 (ip), vehicle: Klucel (hydroxypropylcellulose) (HPC)) was 95 % of control. For the same compound, the T/C (dose: 200.0 mg/kg/injection, schedule: Q01DX009 (ip), vehicle: other) was 100 % of control, the T/C [2] was 110 % of control and the T/C [3] was 105 % of control.

`C=CCN(CC=C)/N=N/c1nc[nH]c1C(N)=O` was tested, and the T/C (dose: 50.0 mg/kg/injection, schedule: Q04DX003 (ip), vehicle: saline with Tween-80) was 100 % of control, the T/C (dose: 100.0 mg/kg/injection, schedule: Q04DX003 (ip), vehicle: saline with Tween-80) was 95 % of control and the T/C (dose: 200.0 mg/kg/injection, schedule: Q04DX003 (ip), vehicle: saline with Tween-80) was 113 % of control.

For `COc1cc2c3cc1Oc1c(OC)c(OC)cc4c1C(Cc1cc5c(c(c1)Oc1ccc(cc1)CC3N(C)CC2)OCO5)N(C)CC4` (stereo unspecified), the T/C (dose: 5.0 mg/kg/injection, schedule: Q01DX010 (ip), vehicle: saline) was 90 % of control, the T/C (dose: 20.0 mg/kg/injection, schedule: Q01DX010 (ip), vehicle: saline) was 104 % of control and the T/C (dose: 40.0 mg/kg/injection, schedule: Q01DX010 (ip), vehicle: saline) was 95 % of control.

For `CC(C)NC(=O)c1ccccc1S(=O)c1ccccc1C(=O)NC(C)C`, the T/C (dose: 50.0 mg/kg/injection, schedule: Q01DX009 (ip), vehicle: saline with Tween-80) was 104 % of control, the T/C (dose: 100.0 mg/kg/injection, schedule: Q01DX009 (ip), vehicle: saline with Tween-80) was 100 % of control and the T/C (dose: 200.0 mg/kg/injection, schedule: Q01DX009 (ip), vehicle: saline with Tween-80) was 108 % of control.

With `O=C(O)C1(NO)CCCC1` the T/C (dose: 100.0 mg/kg/injection, schedule: Q01DX009 (ip), vehicle: saline) was 95 % of control and the T/C (dose: 200.0 mg/kg/injection, schedule: Q01DX009 (ip), vehicle: saline) was 104 % of control.

For `C=C1C(c2ccccc2)C(c2ccccc2)=C(C)C(c2ccccc2)=CN1C(=O)c1ccccc1` (stereo unspecified), the T/C [4] was 97 % of control, the T/C [5] was 88 % of control and the T/C [6] was 95 % of control.

`NC(N)=NCCCC(NC(=O)OCc1ccccc1)C(=O)O` (stereo unspecified) was tested, and the T/C [1] was 100 % of control, the T/C [2] was 104 % of control and the T/C [3] was 100 % of control.

`Cn1cnc([N+](=O)[O-])c1Sc1ncnc2c1ncn2C1OC(CO)C(O)C1O` (stereo unspecified) was tested, and the T/C [4] was 113 % of control, the T/C [5] was 154 % of control and the T/C [6] was 122 % of control.

With `NS(=O)(=O)O` the T/C (dose: 12.5 mg/kg/injection, schedule: Q01DX009 (ip), vehicle: saline) was 91 % of control and the T/C (dose: 25.0 mg/kg/injection, schedule: Q01DX009 (ip), vehicle: saline) was 87 % of control.

For `CO[C@H]1C[C@](C)(O)Cc2cc3c(c(O)c21)C(=O)c1c(O)cc2c(c1C3=O)O[C@@H]1O[C@@]2(C)[C@H](O)[C@@H](N(C)C)[C@@H]1O`, the T/C (dose: 18.0 mg/kg/injection, schedule: Q04DX003 (ip), vehicle: lactate) was 228 % of control, the T/C (dose: 30.0 mg/kg/injection, schedule: Q04DX003 (ip), vehicle: lactate) was 271 % of control and the T/C (dose: 50.0 mg/kg/injection, schedule: Q04DX003 (ip), vehicle: lactate) was 107 % of control.

`CC1(C)OC(COCCOCCOCCCO)C(COCCOCCOCCCO)O1` (stereo unspecified) was tested, and the T/C (dose: 100.0 mg/kg/injection, schedule: Q01DX001 (ip), vehicle: saline) was 112 % of control, the T/C (dose: 100.0 mg/kg/injection, schedule: Q01DX001 (ip), vehicle: suspension in saline) was 100 % of control and the T/C (dose: 200.0 mg/kg/injection, schedule: Q01DX001 (ip), vehicle: saline) was 111 % of control. The T/C (dose: 200.0 mg/kg/injection, schedule: Q01DX001 (ip), vehicle: suspension in saline) was 98 % of control, the T/C (dose: 400.0 mg/kg/injection, schedule: Q01DX001 (ip), vehicle: suspension in saline) was 120 % of control and the T/C (dose: 800.0 mg/kg/injection, schedule: Q01DX001 (ip), vehicle: suspension in saline) was 100 % of control.

In the case of `c1ccc2c(c1)[nH]c1c2c[n+]2c3c(cccc13)CCC2`, the T/C (dose: 3.13 mg/kg/injection, schedule: Q01DX009 (ip), vehicle: saline) is reported as 119 % of control, the T/C (dose: 3.66 mg/kg/injection, schedule: Q01DX009 (ip), vehicle: saline) is reported as 110 % of control and the T/C (dose: 5.49 mg/kg/injection, schedule: Q01DX009 (ip), vehicle: saline) is reported as 105 % of control. The T/C (dose: 6.25 mg/kg/injection, schedule: Q01DX009 (ip), vehicle: saline) was 104 % of control.

For `O=S1(=O)CC(N2CCCCC2)C2=C(CCN(c3ccccc3)C2)O1` (stereo unspecified), the T/C [7] was 112 % of control, the T/C (dose: 200.0 mg/kg/injection, schedule: Q04DX002 (ip), vehicle: saline with Tween-80) was 95 % of control and the T/C (dose: 400.0 mg/kg/injection, schedule: Q04DX002 (ip), vehicle: saline with Tween-80) was 98 % of control.

In the case of `CSc1ncc(C)c[n+]1-c1ccccc1`, the T/C (dose: 50.0 mg/kg/injection, schedule: Q04DX002 (ip), vehicle: saline with Tween-80) is reported as 106 % of control and the T/C [7] is reported as 107 % of control.

In the case of `CNC(=O)O/N=C(\CN=[N+]=[N-])C(C)(C)C`, the T/C (dose: 0.2 mg/kg/injection, schedule: Q01DX009 (ip), vehicle: saline) is reported as 92 % of control, the T/C (dose: 0.39 mg/kg/injection, schedule: Q01DX009 (ip), vehicle: saline) is reported as 88 % of control and the T/C (dose: 0.78 mg/kg/injection, schedule: Q01DX009 (ip), vehicle: saline) is reported as 122 % of control.

With `CC(=O)CC(C)=O.CC(=O)CC(C)=O.O.O.[Co]` the T/C (dose: 22.0 mg/kg/injection, schedule: Q04DX003 (ip), vehicle: saline with Tween-80) was 105 % of control, the T/C (dose: 33.0 mg/kg/injection, schedule: Q04DX003 (ip), vehicle: saline with Tween-80) was 113 % of control and the T/C (dose: 75.0 mg/kg/injection, schedule: Q04DX003 (ip), vehicle: saline with Tween-80) was 102 % of control.

`CC(=O)CC(=O)NCCCc1ccccc1` was tested, and the T/C (dose: 100.0 mg/kg/injection, schedule: Q04DX003 (sc), vehicle: olive oil, sesame oil, peanut oil) was 109 % of control, the T/C (dose: 200.0 mg/kg/injection, schedule: Q04DX003 (sc), vehicle: olive oil, sesame oil, peanut oil) was 100 % of control and the T/C (dose: 400.0 mg/kg/injection, schedule: Q04DX003 (sc), vehicle: olive oil, sesame oil, peanut oil) was 100 % of control.

In the case of `CC(/C=C/C(O)=C1/C(=O)CNC1=O)=C\[C@@H](C)[C@H]1O[C@@]2(C)O[C@H](C(=O)[C@@H]3O[C@@]32C)[C@@H]1C`, the T/C (dose: 3.13 mg/kg/injection, schedule: Q01DX009 (ip), vehicle: saline with Tween-80) is reported as 108 % of control, the T/C (dose: 6.25 mg/kg/injection, schedule: Q01DX009 (ip), vehicle: saline with Tween-80) is reported as 105 % of control and the T/C (dose: 12.5 mg/kg/injection, schedule: Q01DX009 (ip), vehicle: saline with Tween-80) is reported as 103 % of control. For the same compound, the T/C (dose: 25.0 mg/kg/injection, schedule: Q01DX009 (ip), vehicle: saline with Tween-80) was 100 % of control.

In the case of `CCOC(=O)N(CC)c1ccccc1`, the T/C [1] is reported as 90 % of control, the T/C [2] is reported as 104 % of control and the T/C [3] is reported as 100 % of control.

For `S=C1SC(c2ccccc2)(c2ccccc2)c2ccccc21`, the T/C (dose: 100.0 mg/kg/injection, schedule: Q01DX001 (ip), vehicle: saline with Tween-80) was 100 % of control, the T/C (dose: 200.0 mg/kg/injection, schedule: Q01DX001 (ip), vehicle: saline with Tween-80) was 94 % of control and the T/C (dose: 400.0 mg/kg/injection, schedule: Q01DX001 (ip), vehicle: saline with Tween-80) was 93 % of control.
